Experimental data published in patent US7767659B2, “Synthesis of naturally occurring ecteinascidins and related compounds” (Pharma Mar, S.A., priority 2002, dated 2010).

Key:
[1] = test system: IGROV-ET; experiment: Inhibition of cells growth by colorimetric assay (SRB); settings: Homo sapiens, 48 h; for GI50: read-out: IGROV-ET GI50; for CC50: read-out: IGROV-ET LC50; for IC (TGI): read-out: IGROV-ET TGI
Outline: (§1)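 Colorimetric SRB read (490 nm) on triplicate wells after 48 h at 37 °C, 5% CO2. Dose range 10 to 10^−8 μg/ml; 5×10^3 cells/well pre-attached 18 h.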

[2] = test system: LNCaP; experiment: as above; settings: Homo sapiens, LNCaP, 48 h; for GI50: read-out: LNCAP GI50; for CC50: read-out: LNCAP LC50; for IC (TGI): read-out: LNCAP TGI
Outline: as §1

[3] = test system: K-562; experiment: as above; settings: Homo sapiens, K562, 48 h; for GI50: read-out: K562 GI50; for CC50: read-out: K562 LC50; for IC (TGI): read-out: K562 TGI
Outline: as §1

[4] = test system: LoVo-Dox; experiment: as above; settings: Homo sapiens, 48 h; for GI50: read-out: LOVO-DOX GI50; for CC50: read-out: LOVO-DOX LC50; for IC (TGI): read-out: LOVO-DOX TGI
Outline: as §1

[5] = test system: DU-145; experiment: as above; settings: Homo sapiens, DU-145, 48 h; for GI50: read-out: DU145 GI50; for CC50: read-out: DU145 LC50; for IC (TGI): read-out: DU145 TGI
Outline: as §1

[6] = test system: HeLa-APL; experiment: as above; settings: Homo sapiens, 48 h; for GI50: read-out: HELA-APL GI50; for CC50: read-out: HELA-APL LC50; for IC (TGI): read-out: HELA-APL TGI
Outline: as §1

[7] = test system: PANC-1; experiment: as above; settings: Homo sapiens, PANC-1, 48 h; for GI50: read-out: PANC-1 GI50; for CC50: read-out: PANC-1 LC50; for IC (TGI): read-out: PANC-1 TGI
Outline: as §1

[8] = test system: SK-MEL-28; experiment: as above; settings: Homo sapiens, SK-MEL-28, 48 h; for GI50: read-out: MEL-28 GI50; for CC50: read-out: MEL-28 LC50; for IC (TGI): read-out: MEL-28 TGI
Outline: as §1

[9] = test system: SK-BR-3; experiment: as above; settings: Homo sapiens, SK-BR-3, 48 h; for GI50: read-out: SK-BR3 GI50; for CC50: read-out: SK-BR3 LC50; for IC (TGI): read-out: SK-BR3 TGI
Outline: as §1

[10] = test system: IGROV-1; experiment: as above; settings: Homo sapiens, IGROV-1, 48 h; for GI50: read-out: IGROV GI50; for CC50: read-out: IGROV LC50; for IC (TGI): read-out: IGROV TGI
Outline: as §1

[11] = test system: HeLa; experiment: as above; settings: Homo sapiens, HeLa, 48 h; for GI50: read-out: HELA GI50; for CC50: read-out: HELA LC50; for IC (TGI): read-out: HELA TGI
Outline: as §1

[12] = test system: A-549; experiment: cells; settings: Homo sapiens, A549, 48 h; for GI50: read-out: A549 GI50; for CC50: read-out: A549 LC50; for IC (TGI): read-out: A549 TGI
Outline: as §1

[13] = test system: LoVo; experiment: cells; settings: Homo sapiens, LoVo, 48 h; for GI50: read-out: LOVO GI50; for CC50: read-out: LOVO LC50; for IC (TGI): read-out: LOVO TGI
Outline: as §1

[14] = test system: HT-29; experiment: cells; settings: Homo sapiens, HT-29, 48 h; for GI50: read-out: HT29 GI50; for CC50: read-out: HT29 LC50; for IC (TGI): read-out: HT29 TGI
Outline: as §1

Compound `COc1c(C)cc2c(c1O)[C@H]1N[C@@H](C2)[C@H](O)N2C1[C@@H]1SCC(=O)C(=O)OC[C@H]2c2c3c(c(C)c(OC(C)=O)c21)OCO3` (stereo partly drawn) [compound 43] has a GI50 [1] of 68.5 nM, a CC50 [1] of 5800 nM and an IC (TGI) [1] of 369 nM. It also gave a GI50 [2] of 6.58 nM, a CC50 [2] of 88.7 nM and an IC (TGI) [2] of 20.2 nM. The GI50 [3] was 3.11 nM, the CC50 [3] was 895 nM and the IC (TGI) [3] was 13.8 nM. For the same compound, the GI50 [4] was 423 nM, the CC50 [4] was 16700 nM and the IC (TGI) [4] was 1150 nM. The GI50 [5] was 13.6 nM, the CC50 [5] was 2920 nM and the IC (TGI) [5] was 67 nM. For the same compound, the GI50 [6] was 24.1 nM, the CC50 [6] was 423 nM and the IC (TGI) [6] was 73.2 nM. For the same compound, the GI50 [7] was 22.9 nM, the CC50 [7] was 2150 nM and the IC (TGI) [7] was 82.7 nM. The GI50 [8] was 9.09 nM, the CC50 [8] was 91 nM and the IC (TGI) [8] was 32.7 nM. The GI50 [9] was 5.83 nM, the CC50 [9] was 164 nM and the IC (TGI) [9] was 24.2 nM. The GI50 [10] was 10.6 nM, the CC50 [10] was 384 nM and the IC (TGI) [10] was 49.6 nM. For the same compound, the GI50 [11] was 9.39 nM, the CC50 [11] was 145 nM and the IC (TGI) [11] was 39.9 nM. It also gave a GI50 [12] of 26.1 nM, a CC50 [12] of 148 nM and an IC (TGI) [12] of 62.1 nM. For the same compound, the GI50 [13] was 31.2 nM, the CC50 [13] was 16700 nM and the IC (TGI) [13] was 86.7 nM. The GI50 [14] was 24.2 nM, the CC50 [14] was 16700 nM and the IC (TGI) [14] was 190 nM.

For `C=CCN1[C@@H]2c3c(cc(C)c(OC)c3O)C[C@H]1[C@H](C#N)N1C2[C@@H]2SC[C@]3(NCCc4c3[nH]c3ccc(O)cc43)C(=O)OC[C@H]1c1c3c(c(C)c(OC(C)=O)c12)OCO3` (stereo partly drawn) [compound 57], the GI50 [1] was 252 nM, the CC50 [1] was 1170 nM and the IC (TGI) [1] was 544 nM. It also gave a GI50 [2] of 15.1 nM, a CC50 [2] of 69.3 nM and an IC (TGI) [2] of 32.3 nM. The GI50 [3] was 8.82 nM, the CC50 [3] was 12200 nM and the IC (TGI) [3] was 88.8 nM. For the same compound, the GI50 [4] was 774 nM, the CC50 [4] was 12200 nM and the IC (TGI) [4] was 6220 nM. It also gave a GI50 [5] of 52.1 nM, a CC50 [5] of 12200 nM and an IC (TGI) [5] of 12200 nM. It also gave a GI50 [6] of 22.3 nM, a CC50 [6] of 115 nM and an IC (TGI) [6] of 50.5 nM. The GI50 [7] was 52.9 nM, the CC50 [7] was 12200 nM and the IC (TGI) [7] was 1340 nM. For the same compound, the GI50 [8] was 29.3 nM, the CC50 [8] was 106 nM and the IC (TGI) [8] was 55.6 nM. The GI50 [9] was 6.42 nM, the CC50 [9] was 382 nM and the IC (TGI) [9] was 31.8 nM. The GI50 [10] was 28.8 nM, the CC50 [10] was 6480 nM and the IC (TGI) [10] was 66 nM. The GI50 [11] was 26.8 nM, the CC50 [11] was 112 nM and the IC (TGI) [11] was 56.4 nM. The GI50 [12] was 37.4 nM, the CC50 [12] was 1500 nM and the IC (TGI) [12] was 101 nM. The GI50 [13] was 85.9 nM, the CC50 [13] was 877 nM and the IC (TGI) [13] was 274 nM. For the same compound, the GI50 [14] was 44.6 nM, the CC50 [14] was 12200 nM and the IC (TGI) [14] was 4380 nM.
